Assay results from paper PMC10703884, “Targeting the COMMD4–H2B protein complex in lung cancer” (British Journal of Cancer, 2023).
No end group written: not given here.

Tests used:
HBEC3-KT cells [1] = experiment: Clonogenic cell viability after IR, HBEC3-KT cells; format: cell-based, Human; conditions: varying IR doses, 7–10 days recovery, three independent experiments
Method: H1299, CRL5889 and H460 cells were cultured in Roswell Park Memorial Institute (RPMI) 1640 medium (Life Technologies) containing 10% foetal bovine serum (Thermo Fisher Scientific). Human bronchial epithelial cells (HBEC3-KT) were maintained in keratinocyte serum-free medium supplemented with epidermal growth factor and bovine pituitary extract (Life Technologies). The histology features and origin of all cell lines used have been previously described. Cell lines were authenticated using STR profiling. Cells were grown in a humidified incubator at 37 °C/5% CO2 atmosphere. All cell lines were verified to be free of mycoplasma contamination.
Irradiations were done at room temperature using a ^137Cs source (Gammacell 40 Exactor [MDS Nordion]; dose rate 1.1 Gy/min). Phalloidin-Atto 488 was purchased from Sigma-Aldrich and Hoechst 33342 was purchased from Thermo Fisher Scientific.
For siRNA transfections, cells were transfected with negative control or COMMD4 siRNA #2 (CCAUGUCCCUCUCAGCAGA[dT][dT] MISSION® siRNA, Sigma-Aldrich) using RNAiMax (Life Technologies) as previously described and samples were analysed 48 to 72 h post-transfection. […] Cells were mock-transfected, or transfected with FLAG-H2BWT/FLAG-H2BMUT1, or COMMD4-FLAG/A70K with FuGENE® HD (Promega) using the manufacturer’s protocol and analysed 24 h post-transfection. […]

NSCLC cells = experiment: Immunofluorescence γH2AX and MDC1 foci, NSCLC cells; format: cell-based; conditions: 6 Gy IR, 0.5 to 2 h post-IR, 50 cells per condition, three independent experiments
Method: (§1) For siRNA transfections, cells were transfected with negative control or COMMD4 siRNA #2 (CCAUGUCCCUCUCAGCAGA[dT][dT] MISSION® siRNA, Sigma-Aldrich) using RNAiMax (Life Technologies) as previously described and samples were analysed 48 to 72 h post-transfection. The H2B wild-type (FLAG-H2BWT) and mutant (FLAG-H2BMUT1) expression constructs were generated with the 10-amino acid peptide and the corresponding mutant cloned into the expression vector pCDNA3.1/(+)-N-DYK containing an N-terminal FLAG tag and a C-terminal nuclear localisation signal (AAKRVKLDS) (GenScript). A70K FLAG-COMMD4 expression construct was generated by mutating the corresponding COMMD4-FLAG construct to harbour an A70K mutation (GenScript). Cells were mock-transfected, or transfected with FLAG-H2BWT/FLAG-H2BMUT1, or COMMD4-FLAG/A70K with FuGENE® HD (Promega) using the manufacturer’s protocol and analysed 24 h post-transfection.
NSCLC and control cells transfected with siRNA or H2B plasmids were grown in optical glass bottom 96-well plates (Cellvis). Post-treatment, cells were pre-extracted with ice-cold extraction buffer (20 mM HEPES (pH 8), 20 mM NaCl, 5 mM MgCl2, 1 mM ATP, 0.5% NP40), to remove the soluble proteins and processed as previous. Images were captured using a Delta Vision PDV microscope 100x/1.42 Oil objective (Applied Precision, Inc). All immunofluorescence figures were assembled using Adobe Photoshop. High-content microscopy was performed using the InCell Analyzer 6500 Imaging System (GE Healthcare Life Sciences). Images were analysed using the InCarta Image Analysis software (GE Healthcare Life Sciences) where a minimum of 50 nuclei were quantified per experiment.
Fig. 4 Induction of DSBs in NSCLC and control cells. a Immunofluorescence staining of H1299 NSCLC cells transfected with control or COMMD4 siRNA #2 and FLAG-H2BWT or FLAG-H2BMUT1 is shown. […]
independent experiments where 50 cells were quantified per condition. γH2AX is shown in […]
mean ± SD from three independent experiments where 50 cells were quantified per condition.

HBEC3-KT cells [2] = experiment: Annexin V-FITC / propidium iodide apoptosis, HBEC3-KT cells; format: cell-based, Human; conditions: flow cytometry, three independent experiments
Method: as §1, with “A70K FLAG-COMMD4 expression construct was generated by mutating the corresponding COMMD4-FLAG construct to harbour an A70K mutation (GenScript).” left out
The Annexin V-FITC apoptosis kit (United Bioresearch, ALX-850-020-K101, Enzo Life Sciences, Farmingdale, NY, USA) was used to measure viable and apoptotic cells, as previously described. […] CytExpert 2.0 software was used for data acquisition and analysed using the FlowJo v10 software.
Fig. 5 Induction of mitotic catastrophe and apoptosis in NSCLC cells. a Emerin and phalloidin staining respectively in three NSCLC and control HBEC3-KT cells. […] Asterix (*) denotes *P < 0.05 and ** P < 0.005 from 100 cells counted. […] The live cells were stained with Annexin V-FITC and propidium iodide and analysed by flow cytometer. […]

HBEC3-KT cells [3] = experiment: Immunofluorescence γH2AX and MDC1 foci, HBEC3-KT cells; format: cell-based, Human; conditions: 6 Gy IR, 50 cells per condition, three independent experiments
Method: as §1
NSCLC and control cells transfected with siRNA or H2B plasmids were grown in optical glass bottom 96-well plates (Cellvis). Post-treatment, cells were pre-extracted with ice-cold extraction buffer (20 mM HEPES (pH 8), 20 mM NaCl, 5 mM MgCl2, 1 mM ATP, 0.5% NP40), to remove the soluble proteins and processed as previous. […] Images were analysed using the InCarta Image Analysis software (GE Healthcare Life Sciences) where a minimum of 50 nuclei were quantified per experiment. […]

## FLAG-H2BWT: 10-amino acid peptide cloned into expression vector containing an N-terminal FLAG tag and a C-terminal nuclear localisation signal ({FLAG}-SFVNDIFERIAAKRVKLDS)
HBEC3-KT cells [1]
  sensitivity to ionising radiation (clonogenic viability): neither hypersensitive to IR
NSCLC cells
  γH2AX and MDC1 (DNA repair) foci: significantly more DNA repair foci
HBEC3-KT cells [2]
  induction of apoptosis: no significant induction of apoptosis
HBEC3-KT cells [3]
  γH2AX and MDC1 (DNA repair) foci: exhibited increased DNA repair foci
